Patent US20260022142A1, “MACROCYCLIC IMMUNOMODULATORS” (Bristol-Myers Squibb Company, priority 2022, published 2026)
Bridge positions count the residues as written; N and C are the ends. Square brackets hold non-standard residues; d marks the D form. Peptide text beside a SMILES is read from it. * marks the point of attachment. ξ: configuration not given here. Bip = N[C@@H](Cc1ccc(-c2ccccc2)cc1)C(=O)O; NH(CH2)14COOH = O=C(O)CCCCCCCCCCCCCCN*; Phe(3-Me) = Cc1cccc(C[C@H](N)C(=O)O)c1; His(π-Me) = Cn1cncc1C[C@H](N)C(=O)O; Val(3-OH) = CC(C)(O)[C@H](N)C(=O)O; 4Pal = N[C@@H](Cc1ccncc1)C(=O)O; Cha = N[C@@H](CC1CCCCC1)C(=O)O; Cit = NC(=O)NCCC[C@H](N)C(=O)O; Thr(3ξ) = CC(O)[C@H](N)C(=O)O; Carboxymethyl = O=C(O)C*; Orn = NCCC[C@H](N)C(=O)O; Aun = NCCCCCCCCCCC(=O)O; Dab = NCC[C@H](N)C(=O)O; Nva = CCC[C@H](N)C(=O)O; Dap = NC[C@H](N)C(=O)O; AEEA = NCCOCCOCC(=O)O

These compounds were tested against T1, PD-1/PD-L1 interaction (PE-labeled human PD-L1-Ig binding to Jurkat cell line over-expressing human PD-1) (Homo sapiens, UniProt Q15116) (assay: Jurkat-PD-1 Cell Binding High-Content Screening Assay (CBA)). Conditions: Jurkat cell line over-expressing human PD-1; PE-labeled PD-L1-Ig 20 nM final; read-out: Jurkat hPD1-PDL1 IC50.
T1 construct: expressed in transfected cells; host or cells: Jurkat
Assay type: cell-based
Summary of the method: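 Binding of fluorescent PD-L1-Ig (20 nM final) to Jurkat-PD-1 cells was measured by automated imaging after 1 h, following a 2 h compound pre-treatment at 37° C.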

T1 sequence (Q15116 25-288): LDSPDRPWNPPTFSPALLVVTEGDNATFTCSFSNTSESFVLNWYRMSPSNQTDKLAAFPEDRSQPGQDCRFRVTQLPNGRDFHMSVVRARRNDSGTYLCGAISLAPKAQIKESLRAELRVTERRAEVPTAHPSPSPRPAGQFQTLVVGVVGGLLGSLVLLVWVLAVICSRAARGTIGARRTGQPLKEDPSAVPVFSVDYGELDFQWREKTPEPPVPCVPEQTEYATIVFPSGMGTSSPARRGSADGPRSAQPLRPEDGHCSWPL

Row | IC50 [nM] | SMILES
1 | 14.5 | Cc1cccc(C[C@@H]2NC(=O)[C@H](CC(=O)O)NC(=O)[C@H](Cc3ccc(OCC(=O)O)cc3)NC(=O)[C@H](Cc3cncn3C)NC(=O)CSC[C@@H](C(=O)N[C@@H](CCN)C(=O)NCCCCCCCCCCC(=O)O)NC(=O)[C@H](CCCCN)NC(=O)[C@H](C(C)C)NC(=O)[C@H](CC3CCCCC3)NC(=O)[C@H](CCN)NC(=O)[C@@H](CC(C)C)NC(=O)[C@H](CCCN)NC(=O)[C@H](C(C)C)NC(=O)[C@H](Cc3ccc(-c4ccccc4)cc3)NC(=O)[C@H](C(C)C)NC2=O)c1 [Compound 2035] ({CH2CO}-[His(π-Me)]Y(Carboxymethyl)D[Phe(3-Me)]V[Bip]V[Orn][dL][Dab][Cha]VKC[Dab][Aun]-OH; thioether N-14)
2 | 13 | Cc1cccc(C[C@@H]2NC(=O)[C@H](CC(=O)O)NC(=O)[C@H](Cc3ccc(OCC(=O)O)cc3)NC(=O)[C@H](CN)NC(=O)CSC[C@@H](C(=O)N[C@@H](CCN)C(=O)NCCOCCOCC(=O)NCCCCCCCCCCC(=O)O)NC(=O)[C@H](C(C)O)NC(=O)[C@H](Cc3ccc(O)cc3)NC(=O)[C@H](CC3CCCCC3)NC(=O)[C@H](CCN)NC(=O)[C@@H](CC(C)C)NC(=O)[C@H](CCCN)NC(=O)[C@H](CCCNC(N)=O)NC(=O)[C@H](Cc3ccc(-c4ccccc4)cc3)NC(=O)[C@H](Cc3ccc(O)cc3)NC2=O)c1 (stereo partly drawn) [Compound 2571] ({CH2CO}-[Dap]Y(Carboxymethyl)D[Phe(3-Me)]Y[Bip][Cit][Orn][dL][Dab][Cha]Y[Thr(3ξ)]C[Dab][AEEA][Aun]-OH; thioether N-14)
3 | 5.5 | CC(C)C[C@H]1NC(=O)[C@H](CCCN)NC(=O)[C@H](C(C)C)NC(=O)[C@H](Cc2ccc(-c3ccccc3)cc2)NC(=O)[C@H](C(C)C)NC(=O)[C@H](Cc2c[nH]c3ccccc23)NC(=O)[C@H](CC(=O)O)NC(=O)[C@H](Cc2ccc(OCC(=O)O)cc2)NC(=O)[C@H](Cc2ccncc2)NC(=O)CSC[C@@H](C(=O)NCC(=O)NCCOCCOCC(=O)N[C@@H](CCCN)C(=O)NCCCCCCCCCCC(=O)O)NC(=O)[C@H](CN)NC(=O)[C@H](C(C)C)NC(=O)[C@H](CC2CCCCC2)NC(=O)[C@H](CCN)NC1=O [Compound 3233] ({CH2CO}-[4Pal]Y(Carboxymethyl)DWV[Bip]V[Orn][dL][Dab][Cha]V[Dap]CG[AEEA][Orn][Aun]-OH; thioether N-14)
4 | 15 | Cc1cccc(C[C@@H]2NC(=O)[C@H](CC(=O)O)NC(=O)[C@H](Cc3ccc(OCC(=O)O)cc3)NC(=O)[C@H](C(C)O)NC(=O)CSC[C@@H](C(=O)N[C@H](CC(N)=O)C(=O)NCCCCCCCCCCC(=O)O)NC(=O)[C@H](C(C)O)NC(=O)[C@H](C(C)C)NC(=O)[C@H](CC3CCCCC3)NC(=O)[C@H](CCN)NC(=O)[C@@H](CC(C)C)NC(=O)[C@H](CCCNC(N)=O)NC(=O)[C@H](Cc3ccc(OCC(=O)O)cc3)NC(=O)[C@H](Cc3ccc(-c4ccccc4)cc3)NC(=O)[C@H](Cc3ccc(OCC(=O)O)cc3)NC2=O)c1 (stereo partly drawn) [Compound 3499] ({CH2CO}-[Thr(3ξ)]Y(Carboxymethyl)D[Phe(3-Me)]Y(Carboxymethyl)[Bip]Y(Carboxymethyl)[Cit][dL][Dab][Cha]V[Thr(3ξ)]C[dN][Aun]-OH; thioether N-14)
5 | 467 | CCC[C@@H]1NC(=O)CSC[C@@H](C(=O)N[C@@H](CCN)C(=O)NCCOCCOCC(=O)NCCCCCCCCCCCCCCC(=O)O)NC(=O)[C@H](CO)NC(=O)[C@H](C(C)(C)O)NC(=O)[C@H](CC2CCCCC2)NC(=O)[C@H](CCN)NC(=O)[C@@H](CC(C)C)NC(=O)[C@H](CCCN)NC(=O)[C@H](Cc2ccc(OCC(=O)O)cc2)NC(=O)[C@H](Cc2ccc(-c3ccccc3)cc2)NC(=O)[C@H](Cc2ccc(OCC(=O)O)cc2)NC(=O)[C@H](Cc2cccc(C)c2)NC(=O)[C@H](CC(=O)O)NC(=O)[C@H](Cc2ccc(OCC(=O)O)cc2)NC1=O [Compound 2868] ({CH2CO}-[Nva]Y(Carboxymethyl)D[Phe(3-Me)]Y(Carboxymethyl)[Bip]Y(Carboxymethyl)[Orn][dL][Dab][Cha][Val(3-OH)]SC[Dab][AEEA]-{NH(CH2)14COOH}; thioether N-14)
